Measurements from patent US10174016B2 (BAYER AKTIENGESELLSCHAFT, priority 2014, dated 2019).
Where two headings read alike, the source gives them in different places.

Key:
human P2X2/3 receptor = human P2X2/3 receptor (Homo sapiens (Human), UniProt P56373+Q9UBL9); assay: Intracellular calcium measurement (FLIPR, Fluo-4) of antagonist activity at human P2X2/3 receptors; assay type: cell-based
Summary of the method: (§1)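 Antagonism quantified from peak calcium fluorescence (Fluo-4, FLIPR, 90 sec read) evoked by EC80 α,β-Me-ATP, after a 30 min, 37° C. compound pretreatment in 1% DMSO. Human P2X3- or P2X2/3-expressing cells used; triplicate means fitted for IC50, percent maximal inhibition and Hill coefficient.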

human P2X3 receptor = human P2X3 receptor (Homo sapiens (Human), UniProt P56373); assay: Intracellular calcium measurement (FLIPR, Fluo-4) of antagonist activity at human P2X3 receptors; assay type: cell-based; settings: read-out: hP2X3 IC50
Summary of the method: as §1

[1] = human P2X2/3, FLIPR calcium assay, agonist α,β-Me-ATP, read-out: hP2X2/3 IC50
[2] = human P2X3, FLIPR calcium assay, agonist α,β-Me-ATP

human P2X2/3 receptor, sequence (P56373 whole entry): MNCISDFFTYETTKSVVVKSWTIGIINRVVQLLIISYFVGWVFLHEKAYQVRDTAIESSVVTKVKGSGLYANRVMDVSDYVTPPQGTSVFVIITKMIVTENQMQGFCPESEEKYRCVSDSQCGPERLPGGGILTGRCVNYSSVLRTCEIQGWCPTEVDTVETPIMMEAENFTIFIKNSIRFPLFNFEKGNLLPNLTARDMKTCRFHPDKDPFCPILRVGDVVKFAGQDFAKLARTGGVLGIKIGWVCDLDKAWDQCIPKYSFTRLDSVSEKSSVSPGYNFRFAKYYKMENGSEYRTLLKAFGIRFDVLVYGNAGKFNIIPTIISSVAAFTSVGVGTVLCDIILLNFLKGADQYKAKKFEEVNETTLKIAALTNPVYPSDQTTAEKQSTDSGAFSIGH
human P2X2/3 receptor, sequence (Q9UBL9 whole entry): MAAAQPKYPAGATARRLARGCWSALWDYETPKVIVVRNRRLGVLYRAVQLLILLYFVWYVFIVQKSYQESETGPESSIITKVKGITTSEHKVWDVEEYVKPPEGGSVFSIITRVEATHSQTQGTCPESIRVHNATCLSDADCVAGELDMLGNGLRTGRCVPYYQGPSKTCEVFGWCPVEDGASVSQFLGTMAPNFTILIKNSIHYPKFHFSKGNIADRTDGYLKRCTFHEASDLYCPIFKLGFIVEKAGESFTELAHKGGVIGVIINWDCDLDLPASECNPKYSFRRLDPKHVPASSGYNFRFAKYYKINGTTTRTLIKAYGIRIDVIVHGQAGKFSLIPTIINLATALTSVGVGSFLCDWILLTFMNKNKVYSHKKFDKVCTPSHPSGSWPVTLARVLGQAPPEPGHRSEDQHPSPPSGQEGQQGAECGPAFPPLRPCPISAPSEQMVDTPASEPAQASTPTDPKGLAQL
human P2X3 receptor, sequence (P56373 whole entry): as the sequence (P56373 whole entry) above

IC50 (human P2X2/3 receptor; [1]) [nM]	IC50 (human P2X3 receptor; [2]) [nM]	SMILES	IC50 (human P2X3 receptor) [nM]	IC50 (human P2X2/3 receptor; hP2X2/3 IC50 (nM)) [nM]
380	28	Cc1ccc(CNC(=O)c2cc(OC3CCOCC3)cc(-c3ncc(C)s3)c2)nn1 [Example 82, N-[(6-Methylpyridazin-3-yl)methyl]-3-(5-methyl-1,3-thiazol-2-yl)-5-(tetrahydro-2H-pyran-4-yloxy)benzamide]		
1140	18	Cc1cnc(-c2cc(OCC3CNCCO3)cc(C(=O)N[C@H](C)c3cnc(C(F)(F)F)nc3)c2)s1 (stereo partly drawn) [Example 352, 3-(5-Methyl-1,3-thiazol-2-yl)-5-[morpholin-2-ylmethoxy]-N-{(1R)-1-[2-(trifluoromethyl)pyrimidin-5-yl]ethyl}benzamide]		
145	7	Cc1cnc(-c2cc(OCC3CC3)cc(C(=O)N[C@H](C)c3ccc(C(F)(F)F)nn3)c2)s1 [Example 9, 3-(Cyclopropylmethoxy)-5-(5-methyl-1,3-thiazol-2-yl)-N-{(1R)-1-[6-(trifluoromethyl)pyridazin-3-yl]ethyl}benzamide]		
461	19	CCc1cnc(-c2cc(OCC3(F)CN(C)C3)cc(C(=O)N[C@H](C)c3ccc(C(F)(F)F)nc3)c2)s1 [Example 387, 3-(5-ethyl-1,3-thiazol-2-yl)-5-[(3-fluoro-1-methylazetidin-3-yl)methoxy]-N-{(1R)-1-[6-(trifluoromethyl)pyridin-3-yl]ethyl}benzamide]		
82	7	Cc1cnc(-c2cc(OC3CCNCC3F)cc(C(=O)N[C@H](C)c3cnc(C(F)(F)F)nc3)c2)s1 (stereo partly drawn) [Example 204, 3-{[3-fluoropiperidin-4-yl]oxy}-5-(5-methyl-1,3-thiazol-2-yl)-N-{(1R)-1-[2-(trifluoromethyl)pyrimidin-5-yl]ethyl} benzamide]		
4460	271	Cc1cnc(-c2cc(OC3CCOCC3)cc(C(=O)N[C@@H](C)c3cnc(C(F)(F)F)nc3)c2)s1 [Example 145, 3-(5-Methyl-1,3-thiazol-2-yl)-5-(tetrahydro-2H-pyran-4-yloxy)-N-{(1S)-1-[2-(trifluoromethyl)pyrimidin-5-yl]ethyl}benzamide]		
19	1	Cc1cnc(-c2cc(OCC3CCOCC3)cc(C(=O)N[C@H](C)c3cnc(C(F)(F)F)nc3)c2)s1 [Example 98, 3-(5-Methyl-1,3-thiazol-2-yl)-5-(tetrahydro-2H-pyran-4-ylmethoxy)-N-[(1R)-1-[2-(trifluoromethyl)pyrimidin-5-yl]ethyl]benzamide]		
280	25	Cc1cnc(-c2cc(O[C@H]3CCOC3)cc(C(=O)N[C@H](C)c3ccc(Cl)cn3)c2)s1 [Example 27, N-[(1R)-1-(5-Chloropyridin-2-yl)ethyl]-3-(5-methyl-1,3-thiazol-2-yl)-5-[(3S)-tetrahydrofuran-3-yloxy]benzamide]		
1940	63	Cc1cnc(-c2cc(OC[C@@H]3COCCO3)cc(C(=O)N[C@H](C)c3ccc(C(F)(F)F)nn3)c2)s1 [Example 182, 3-[(2S)-1,4-dioxan-2-ylmethoxy]-5-(5-methyl-1,3-thiazol-2-yl)-N-{(1R)-1-[6-(trifluoromethyl)pyridazin-3-yl]ethyl}benzamide]		
339	12	Cc1cnc(-c2cc(OC3CCOCC3)cc(C(=O)NC(C)c3ncc(F)cc3Cl)c2)s1 (centres unmarked) [Example 80, N-[1-(3-Chloro-5-fluoropyridin-2-yl)ethyl]-3-(5-methyl-1,3-thiazol-2-yl)-5-(tetrahydro-2H-pyran-4-yloxy)benzamide]		
304	27	Cc1cnc(-c2cc(O[C@@H]3CCOC3)cc(C(=O)N[C@H](C)c3cnc(C(F)F)nc3)c2)s1 [Example 153, N-{(1R)-1-[2-(difluoromethyl)pyrimidin-5-yl]ethyl}-3-(5-methyl-1,3-thiazol-2-yl)-5-[(3R)-tetrahydrofuran-3-yloxy]benzamide]		
1520	9	Cc1cnc(-c2cc(OC[C@H]3CNCCO3)cc(C(=O)N[C@H](C)c3cnc(C(F)(F)F)nc3)c2)s1 [Example 347, 3-(5-Methyl-1,3-thiazol-2-yl)-5-[(2R)-morpholin-2-ylmethoxy]-N-{(1R)-1-[2-(trifluoromethyl)pyrimidin-5-yl]ethyl}benzamide]		
804	17	CCN1CCO[C@@H](COc2cc(C(=O)N[C@H](C)c3cnc(C(F)(F)F)nc3)cc(-c3ncc(C)s3)c2)C1 [Example 390, 3-{[(2R)-4-ethylmorpholin-2-yl]methoxy}-5-(5-methyl-1,3-thiazol-2-yl)-N-{(1R)-1-[2-(trifluoromethyl)pyrimidin-5-yl]ethyl}benzamide]		
632	32	Cc1cnc(-c2cc(OC3COC3)cc(C(=O)N[C@H](C)c3ccc(C(F)(F)F)nn3)c2)s1 [Example 161, 3-(5-methyl-1,3-thiazol-2-yl)-5-(oxetan-3-yloxy)-N-{(1R)-1-[6-(trifluoromethyl)pyridazin-3-yl]ethyl}benzamide]		
537	177	Cc1ccc(CNC(=O)c2cc(OC3CCOCC3)cc(-c3ncc(C4CCC4)s3)c2)nn1 [Example 237, 3-(5-cyclobutyl-1,3-thiazol-2-yl)-N-[(6-methylpyridazin-3-yl)methyl]-5-(tetrahydro-2H-pyran-4-yloxy)benzamide]		
324	47	CC(C)c1cnc(-c2cc(O[C@H]3CCOC3)cc(C(=O)N[C@H](C)c3cnc(C(F)(F)F)nc3)c2)s1 [Example 257, 3-[5-(propan-2-yl)-1,3-thiazol-2-yl]-5-[(3S)-tetrahydrofuran-3-yloxy]-N-{(1R)-1-[2-(trifluoromethyl)pyrimidin-5-yl]ethyl}benzamide]		
523	45	Cc1cnc(-c2cc(OC3COC3)cc(C(=O)N[C@H](C)c3cnc(C(F)F)nc3)c2)s1 [Example 152, N-{(1R)-1-[2-(difluoromethyl)pyrimidin-5-yl]ethyl}-3-(5-methyl-1,3-thiazol-2-yl)-5-(oxetan-3-yloxy)benzamide]		
461	40	Cc1cnc(-c2cc(O[C@@H]3CCOC3)cc(C(=O)NCc3cnc(C(F)(F)F)nc3)c2)s1 [Example 166, 3-(5-methyl-1,3-thiazol-2-yl)-5-[(3R)-tetrahydrofuran-3-yloxy]-N-{[2-(trifluoromethyl)pyrimidin-5-yl]methyl}benzamide]		
507	13	Cc1ccc([C@@H](C)NC(=O)c2cc(OC[C@@H]3CCCO3)cc(-c3ncc(C)s3)c2)nn1 [Example 59, N-[(1R)-1-(6-Methylpyridazin-3-yl)ethyl]-3-(5-methyl-1,3-thiazol-2-yl)-5-[(2S)-tetrahydrofuran-2-ylmethoxy]benzamide]		
2410	235	Cc1cnc([C@@H](C)NC(=O)c2cc(Oc3nnc(C)s3)cc(-c3ncc(C)s3)c2)cn1 [Example 109, N-[(1R)-1-(5-Methylpyrazin-2-yl)ethyl]-3-[(5-methyl-1,3,4-thiadiazol-2-yl)oxy]-5-(5-methyl-1,3-thiazol-2-yl)benzamide]		
27	2	Cc1ccc([C@@H](C)NC(=O)c2cc(OCC3CCOCC3)cc(-c3ncc(C)s3)c2)nn1 [Example 99, N-[(1R)-1-(6-Methylpyridazin-3-yl)ethyl]-3-(5-methyl-1,3-thiazol-2-yl)-5-(tetrahydro-2H-pyran-4-ylmethoxy)benzamide]		
		Cc1ncc([C@@H](C)NC(=O)c2cc(O[C@@H]3CCOC3)cc(-c3ncc(C)s3)c2)cn1 [Example 23, N-[(1R)-1-(2-Methylpyrimidin-5-yl)ethyl]-3-(5-methyl-1,3-thiazol-2-yl)-5-[(3R)-tetrahydrofuran-3-yloxy]benzamide]	30	1110
977	18	Cc1cnc(-c2cc(OC[C@H]3CN(C)CCO3)cc(C(=O)N[C@H](C)c3ccc(C(F)(F)F)nc3)c2)s1 [Example 366, 3-{[(2R)-4-methylmorpholin-2-yl]methoxyl}-5-(5-methyl-1,3-thiazol-2-yl)-N-{(1R)-1-[6-(trifluoromethyl)pyridin-3-yl]ethyl}benzamide]		
1560	36	Cc1cnc(-c2cc(O[C@H]3CCNC3)cc(C(=O)N[C@H](C)c3cnc(C(F)(F)F)nc3)c2)s1 [Example 203, 3-(5-methyl-1,3-thiazol-2-yl)-5-[(3S)-pyrrolidin-3-yloxy]-N-{(1R)-1-[2-(trifluoromethyl)pyrimidin-5-yl]ethyl} benzamide]		

SMILES	IC50 (human P2X2/3 receptor; [1]) [nM]	IC50 (human P2X3 receptor; [2]) [nM]	IC50 (human P2X3 receptor) [nM]	IC50 (human P2X2/3 receptor; hP2X2/3 IC50 (nM)) [nM]
Cc1cnc(CNC(=O)c2cc(O[C@@H]3CCOC3)cc(-c3ncc(C)s3)c2)cn1 [Example 12, N-[(5-methylpyrazin-2-yl)methyl]-3-(5-methyl-1,3-thiazol-2-yl)-5-[(3R)-tetrahydrofuran-3-yloxy]benzamide]	≥ 10000		283	
CCc1cnc(-c2cc(OC[C@H]3CCCO3)cc(C(=O)N[C@H](C)c3cnc(C(F)(F)F)nc3)c2)s1 [Example 269, 3-(5-ethyl-1,3-thiazol-2-yl)-5-[(2R)-tetrahydrofuran-2-ylmethoxy]-N-{(1R)-1-[2-(trifluoromethyl)pyrimidin-5-yl]ethyl}benzamide]	35	2		
Cc1ccc([C@@H](C)NC(=O)c2cc(OC[C@H]3CCCO3)cc(-c3ncc(C(C)C)s3)c2)nn1 [Example 273, N-[(1R)-1-(6-methylpyridazin-3-yl)ethyl]-3-[5-(propan-2-yl)-1,3-thiazol-2-yl]-5-[(2R)-tetrahydrofuran-2-ylmethoxy]benzamide]	254		28	
C[C@@H](NC(=O)c1cc(OC[C@H]2CCCO2)cc(-c2ncc(C3CCC3)s2)c1)c1cnc(C(F)(F)F)nc1 [Example 272, 3-(5-cyclobutyl-1,3-thiazol-2-yl)-5-[(2R)-tetrahydrofuran-2-ylmethoxy]-N-{(1R)-1-[2-(trifluoromethyl)pyrimidin-5-yl]ethyl}benzamide]	128		19	
